# Experimental data: patent publication US10358434B2, “2-(3-pyridinyl)-1H-benzimidazole derivative compound and medicament containing same” (NIHON MEDI-PHYSICS CO., LTD., priority 2014, dated 2019)
# What was measured:
# [1] = In vivo kinetics experiment (radioactivity distribution); set-up: species or system Wistar male rat; details: rat, caudal vein
# In short: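 Tissue radioactivity (% ID/g) and adrenal-to-blood, liver, kidney, small intestine, muscle and fat ratios determined at 10, 30 and 60 min post-dose. Tracers (approximately 1 to 3.7 MBq, saline with 1 w/v % ascorbic acid) injected i.v. into caudal vein of anesthetized 9-week male Wistar rats; organs excised, weighed, counted.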
# [2] = system: human adrenal gland section expressing aldosterone-producing adenoma; test: In vitro autoradiography using human adrenal adenoma; format: binding; details: section of FIG. 17(a)
# In short: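 Autoradiography readout: PSL in equal-sized ROIs over adenoma (B2) and normal adrenal cortex (B1), expressed as B2/B1 and decay-corrected using half-life, applied activity and plate contact time. Tissue was surgically excised human adrenal, frozen and cut at 7 μm, incubated 10 min with 5-33 kBq/mL tracer in BSA-containing PBS, then imaged after 16-20 h exposure.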
# [3] = Plasma stability evaluation (TLC analysis); format: in vitro ADME; details: 37° C., 60 minutes, TLC analysis
# In short: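 TLC analysis, using each compound's synthesis conditions, judged stability after methanol was added and samples were centrifuged to remove protein. Beforehand, each tracer had spent 60 minutes at 37° C in pooled heparinized normal human plasma.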
substance,measurement,setting,value
Methyl 1-[4-(1-cyclopropyl-6-[^123I]iodo-1H-imidazobenzo-2-yl)-3-pyridinylmethyl)]-1H-imidazolecarboxylate [[^123I] 601],Adrenal gland/blood ratio of radioactivity accumulation,[1]; 10 min after administration,49.76 ± 8.04
same,Adrenal gland/fat ratio of radioactivity accumulation,[1]; 10 min after administration,48.18 ± 26.02
same,Adrenal gland/kidney ratio of radioactivity accumulation,[1]; 10 min after administration,11.53 ± 2.04
same,Adrenal gland/liver ratio of radioactivity accumulation,[1]; 10 min after administration,3.21 ± 0.44
same,Adrenal gland/muscle ratio of radioactivity accumulation,[1]; 10 min after administration,51.74 ± 11.28
same,Adrenal gland/small intestine ratio of radioactivity accumulation,[1]; 10 min after administration,6.93 ± 2.04
same,Radioactivity distribution Adrenal gland,[1]; 10 min after administration,13.40 ± 2.41 % ID/g
same,Radioactivity distribution Bladder (including urine),[1]; 10 min after administration,0.65 ± 0.26 % ID/g
same,Radioactivity distribution Blood,[1]; 10 min after administration,0.27 ± 0.01 % ID/g
same,Radioactivity distribution Fat,[1]; 10 min after administration,0.34 ± 0.16 % ID/g
same,Radioactivity distribution Heart,[1]; 10 min after administration,0.61 ± 0.03 % ID/g
same,Radioactivity distribution Kidney,[1]; 10 min after administration,1.16 ± 0.02 % ID/g
same,Radioactivity distribution Large intestine,[1]; 10 min after administration,0.14 ± 0.01 % ID/g
same,Radioactivity distribution Liver,[1]; 10 min after administration,4.15 ± 0.27 % ID/g
same,Radioactivity distribution Lung,[1]; 10 min after administration,0.54 ± 0.01 % ID/g
same,Radioactivity distribution Muscle (lower limbs),[1]; 10 min after administration,0.26 ± 0.02 % ID/g
same,Radioactivity distribution Remaining whole body,[1]; 10 min after administration,0.30 ± 0.01 % ID/g
same,Radioactivity distribution Small intestine,[1]; 10 min after administration,1.99 ± 0.27 % ID/g
same,Radioactivity distribution Spleen,[1]; 10 min after administration,0.51 ± 0.02 % ID/g
same,Radioactivity distribution Stomach,[1]; 10 min after administration,0.83 ± 0.25 % ID/g
same,Radioactivity distribution Testis,[1]; 10 min after administration,0.32 ± 0.01 % ID/g
same,Radioactivity distribution Thyroid gland,[1]; 10 min after administration,0.62 ± 0.09 % ID/g
same,Radioactivity distribution Whole brain,[1]; 10 min after administration,0.15 ± 0.01 % ID/g
same,Adrenal gland/blood ratio of radioactivity accumulation,[1]; 30 min after administration,88.31 ± 19.36
same,Adrenal gland/fat ratio of radioactivity accumulation,[1]; 30 min after administration,34.33 ± 3.72
same,Adrenal gland/kidney ratio of radioactivity accumulation,[1]; 30 min after administration,28.94 ± 22.29
same,Adrenal gland/liver ratio of radioactivity accumulation,[1]; 30 min after administration,6.49 ± 1.59
same,Adrenal gland/muscle ratio of radioactivity accumulation,[1]; 30 min after administration,72.90 ± 18.29
same,Adrenal gland/small intestine ratio of radioactivity accumulation,[1]; 30 min after administration,3.30 ± 0.96
same,Radioactivity distribution Adrenal gland,[1]; 30 min after administration,17.21 ± 1.46 % ID/g
same,Radioactivity distribution Bladder (including urine),[1]; 30 min after administration,0.41 ± 0.03 % ID/g
same,Radioactivity distribution Blood,[1]; 30 min after administration,0.20 ± 0.03 % ID/g
same,Radioactivity distribution Fat,[1]; 30 min after administration,0.50 ± 0.03 % ID/g
same,Radioactivity distribution Heart,[1]; 30 min after administration,0.42 ± 0.08 % ID/g
same,Radioactivity distribution Kidney,[1]; 30 min after administration,0.80 ± 0.39 % ID/g
same,Radioactivity distribution Large intestine,[1]; 30 min after administration,0.15 ± 0.01 % ID/g
same,Radioactivity distribution Liver,[1]; 30 min after administration,2.71 ± 0.39 % ID/g
same,Radioactivity distribution Lung,[1]; 30 min after administration,0.43 ± 0.07 % ID/g
same,Radioactivity distribution Muscle (lower limbs),[1]; 30 min after administration,0.24 ± 0.04 % ID/g
same,Radioactivity distribution Remaining whole body,[1]; 30 min after administration,0.24 ± 0.03 % ID/g
same,Radioactivity distribution Small intestine,[1]; 30 min after administration,5.54 ± 1.72 % ID/g
same,Radioactivity distribution Spleen,[1]; 30 min after administration,0.35 ± 0.07 % ID/g
same,Radioactivity distribution Stomach,[1]; 30 min after administration,0.86 ± 0.23 % ID/g
same,Radioactivity distribution Testis,[1]; 30 min after administration,0.31 ± 0.05 % ID/g
same,Radioactivity distribution Thyroid gland,[1]; 30 min after administration,0.69 ± 0.26 % ID/g
same,Radioactivity distribution Whole brain,[1]; 30 min after administration,0.11 ± 0.02 % ID/g
same,Adrenal gland/blood ratio of radioactivity accumulation,[1]; 60 min after administration,73.52 ± 21.70
same,Adrenal gland/fat ratio of radioactivity accumulation,[1]; 60 min after administration,18.31 ± 9.45
same,Adrenal gland/kidney ratio of radioactivity accumulation,[1]; 60 min after administration,10.42 ± 4.49
same,Adrenal gland/liver ratio of radioactivity accumulation,[1]; 60 min after administration,4.79 ± 1.48
same,Adrenal gland/muscle ratio of radioactivity accumulation,[1]; 60 min after administration,63.30 ± 21.65
same,Adrenal gland/small intestine ratio of radioactivity accumulation,[1]; 60 min after administration,0.99 ± 0.55
same,Radioactivity distribution Adrenal gland,[1]; 60 min after administration,8.87 ± 3.98 % ID/g
same,Radioactivity distribution Bladder (including urine),[1]; 60 min after administration,1.17 ± 0.51 % ID/g
same,Radioactivity distribution Blood,[1]; 60 min after administration,0.12 ± 0.02 % ID/g
same,Radioactivity distribution Fat,[1]; 60 min after administration,0.50 ± 0.09 % ID/g
same,Radioactivity distribution Heart,[1]; 60 min after administration,0.26 ± 0.05 % ID/g
same,Radioactivity distribution Kidney,[1]; 60 min after administration,0.84 ± 0.09 % ID/g
same,Radioactivity distribution Large intestine,[1]; 60 min after administration,0.14 ± 0.02 % ID/g
same,Radioactivity distribution Liver,[1]; 60 min after administration,1.80 ± 0.26 % ID/g
same,Radioactivity distribution Lung,[1]; 60 min after administration,0.26 ± 0.03 % ID/g
same,Radioactivity distribution Muscle (lower limbs),[1]; 60 min after administration,0.14 ± 0.02 % ID/g
same,Radioactivity distribution Remaining whole body,[1]; 60 min after administration,0.15 ± 0.01 % ID/g
same,Radioactivity distribution Small intestine,[1]; 60 min after administration,9.33 ± 1.02 % ID/g
same,Radioactivity distribution Spleen,[1]; 60 min after administration,0.20 ± 0.03 % ID/g
same,Radioactivity distribution Stomach,[1]; 60 min after administration,0.50 ± 0.29 % ID/g
same,Radioactivity distribution Testis,[1]; 60 min after administration,0.22 ± 0.05 % ID/g
same,Radioactivity distribution Thyroid gland,[1]; 60 min after administration,0.93 ± 0.47 % ID/g
same,Radioactivity distribution Whole brain,[1]; 60 min after administration,0.10 ± 0.04 % ID/g
same,B2/B1 accumulation ratio,[2],1.05
same,"B2 (PSL value, aldosterone-producing adenoma)",[2]; site 71a,3201
same,"B1 (PSL value, normal adrenal cortex)",[2]; site 72a,3040
same,Radiochemical purity after incubation in human plasma,[3],98%
